The record followed here is US6500823B1, “Unsaturated hydroximic acid derivatives as per abstract inhibitors” (N-Gene Research Laboratories, Inc., priority 1998, dated 2002).

One experiment has as its system HepG2 cells. Description: LDH enzyme activity in hypoxia exposed HepG2 cells. Format: cell-based. As to conditions: Homo sapiens, 30 μg/ml, hypoxia 1% O2 24 hours, Hypoxic control = 100, read-out: Relative LDH content, %. Here is the method: HepG2 cell were cultured in DMEM medium supplemented with 10% FCS in 5% CO2 containing air at 37° C. 10^5 cells were plated in the wells of Costar 24-well culture plates in 1 ml medium. On the following day, cells were treated with the test compounds in a concentration of 30 μg/ml, then cells were exposed to hypoxia treatment (1% O2, 5% CO2 in nitrogen gas) for 24 hours. A part of the control cultures were treated with water used as the solvent, and another part of them was not exposed to hypoxia. At the end of the hypoxic treatment, medium was removed and cells were washed twice with cold PBS. Cells lysates were prepared in 0.05% Triton X-100 containing phosphate buffer (0.05 M) and after centrifugation (2 min. […]) the LDH activity of the supernatant was determined on the basis of NADH consumption in the presence of sodium piruvate substrate.
The LDH activity of the cells treated with the test compounds and compared to the activity of the control exposed to hypoxia is shown in Table 6.

The next experiment concerns male SPRD rats. Put plainly: Reperfusion induced arrhythmia after LAD occlusion, survival rate. It counts as in vivo, rat. As to conditions: for responders at 5 mg/kg: Rattus norvegicus, iv, control 15.38, read-out: % SURV; for effect on survival of reperfusion arrhythmia, in words: compared with Example 2 (100% survival). Here is the method:
Experiments were carried out in male SPRD rats (acceptable body weight range: 300-350 g). The animals were anesthetized with sodium pentobarbital (Nembutal®: 60 mg/kg intraperitoneally) and remained breathing spontaneously. The animals were ventilated with respirator (MTA Kutesz) by using trachea cannule which was inserted after tracheotomy. The standard lead of the ECG II is monitored. Right femoral artery was catheterized and connected to a pressure transducer (BPR-01, Experimetria, Hungary), a preamplifier and pulsotachometer (HG-M, Experimetria, Hungary) for arterial blood pressure and heart rate measurement, respectively. The external jugular vein was cannulated for drug administration. After thoracotomy a silk (braided, coated 4-0) was placed under the left anterior coronary (LAD) artery. After a few minutes' stabilization period, a 5 min occlusion of LAD artery was applied, followed by a 10 min reperfusion period. The survival rate was evaluated.

For experiment [1], the target named is T1, poly-ADP-ribose polymerase from rat liver (Rattus norvegicus, UniProt P27008).
T1 construct: We have isolated the poly-ADP-ribose polymerase from rat liver; from tissue; host or cells: rat liver
T1 sequence (P27008 whole entry): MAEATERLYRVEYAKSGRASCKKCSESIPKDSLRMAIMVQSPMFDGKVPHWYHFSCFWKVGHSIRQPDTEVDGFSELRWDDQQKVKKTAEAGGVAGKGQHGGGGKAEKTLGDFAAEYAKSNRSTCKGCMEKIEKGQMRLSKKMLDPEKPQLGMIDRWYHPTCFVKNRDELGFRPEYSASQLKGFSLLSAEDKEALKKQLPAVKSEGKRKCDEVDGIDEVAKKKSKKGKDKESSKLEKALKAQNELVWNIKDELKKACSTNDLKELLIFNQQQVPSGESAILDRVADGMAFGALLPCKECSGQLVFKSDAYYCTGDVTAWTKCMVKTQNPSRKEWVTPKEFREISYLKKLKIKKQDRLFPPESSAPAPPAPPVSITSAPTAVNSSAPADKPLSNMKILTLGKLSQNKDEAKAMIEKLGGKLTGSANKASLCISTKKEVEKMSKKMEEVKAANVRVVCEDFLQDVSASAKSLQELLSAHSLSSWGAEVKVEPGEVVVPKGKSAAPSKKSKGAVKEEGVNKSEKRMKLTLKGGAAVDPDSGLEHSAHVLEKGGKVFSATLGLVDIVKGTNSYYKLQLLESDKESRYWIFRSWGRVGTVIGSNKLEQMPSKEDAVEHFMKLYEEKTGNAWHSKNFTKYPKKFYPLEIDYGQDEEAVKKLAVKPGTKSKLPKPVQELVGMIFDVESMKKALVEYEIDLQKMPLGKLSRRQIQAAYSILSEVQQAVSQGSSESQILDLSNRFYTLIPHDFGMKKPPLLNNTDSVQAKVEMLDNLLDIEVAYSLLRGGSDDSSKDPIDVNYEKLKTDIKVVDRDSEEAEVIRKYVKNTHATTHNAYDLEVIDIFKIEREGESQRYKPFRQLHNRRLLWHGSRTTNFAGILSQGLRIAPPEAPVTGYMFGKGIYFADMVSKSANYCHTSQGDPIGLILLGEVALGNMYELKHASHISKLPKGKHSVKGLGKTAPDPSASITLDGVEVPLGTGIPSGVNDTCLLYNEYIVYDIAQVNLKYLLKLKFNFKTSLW
Put plainly: In vitro PARP inhibition on isolated enzyme. Format: biochemical. Particulars: for IC50: isolated rat liver enzyme, ± SEM from four parallel measurements, read-out: PARP I0.5 mg/l (converted). On the procedure:
We have isolated the poly-ADP-ribose polymerase from rat liver according to the article Shah.G. M.,Anal Biochem, 227, 1-13 (1995).
We have determined the PARP activation in 130 μl of reaction mixture, which consists of: 100 mM Tris-HCl puffer, pH 8.0, 10 mM MgCl2, 10% glycerol, 1.5 mM DTT, 100 μg of (32P), or (3H), NAD+, 10 μg of histone. We have stopped the reaction after 10 minutes with 8% perchloric acid and seperated the protein through centrifugation (10 minutes, 10.000×g). We have washed the precipitate with 8% perchloric acid, and we measured the radioactivity connected to the protein with scintillation counter.

Experiment [2] has as its target Moloney murine leukemia virus reverse transcriptase (Moloney murine leukemia virus, UniProt P03355). Description: Reverse transcriptase inhibition, (3H)dTTP incorporation. It counts as biochemical. Particulars: read-out: Enzyme inhibition, %. On the procedure:
The compounds may be sorted into group of the non-nucleoside type reverse transcriptase inhibitors. Tests were performed on Moloney murine leukemia virus reverse transcriptase that is considered as a good model of the HIV reverse transcriptase enzyme. The experimental assembly was the following.
The assay measures the incorporation of (3H)dTTP into cDNA using poly(dA) template and oligo(dT)12-18 primer. The reaction was carried out in 20 μl volume.
The reaction was started by addition of 5U reverse transcriptase
The reaction mixture was incubated for 40 min at 37° C. Then 15 μl of the reaction mixture was loaded on Whatman DE81 filter discs and filters were washed sequentially with 5% disodium hidrogen phosphate buffer, with water and with 96% (v/v) ethanol. After drying, the filters were placed into scintillation cocktail (OptiPhase, HiSafe, Wallac) and the radioactivity was measured in a Packard Tri-Carb 2200 scintillation counter.
Two compounds with known inhibitory activity were used in the experiments as positive control. AZT is a nucleoside analog while the compound Nevirapin is a non-nucleoside type inhibitor. Nevirapine binds to the so called benzodiazepine binding site of the enzyme. The applied concentrations of the test compounds were in the 0.2-2 μg/ml concentration range.

Experiment [3] deals with mouse HSP-70 gene promoter in mouse fibroblast L929 cells. Description: HSP-70 promoter-luciferase reporter gene assay. Format: cell-based. Particulars: Control = 100; 10 μl of 10^-2 M solution to 1 ml culture, 30 min, 1 hour regeneration. An excerpt: The activity of HSP-70 was studied by reporter gene assay forming a DNA hybrid. To the promoter sequence of HSP-70 encoding the heat shock protein was fused a gene of a protein that can be detected by a well-measurable enzyme activity. Biotechnological processes were used. As reporter gene luciferase enzyme was employed, the activity of which can be well determined by luminescence measurement. If the promoter of the gene of the luciferase enzyme is substituted by the promoter of the HSP-70 gene, then the change in the activity of the luciferase enzyme i.e. the change of the frequency of the transcription from the gene correlates with the frequency of the transcription of the HSP-70 gene that proceeds in the given circumstances. In this way, if a substance or process influences the expression of the HJSP-70 gene, the effect can be studied through the measurement of the luciferase enzyme activity. The effect of the substances to be tested on the HSP-70 expression was studied in such an experimental system.
A double-stranded DNA circular molecule i.e. a plasmid containing the HSP-70 reporter gene was constructed to perform the measurements. An almost 600 bp long sequence of the mouse HSP-70 gene promoter (5′ direction from the start site of the gene) was fused to the coding sequence of the luciferase gene originated from Photymus pyralis. The applied promoter sequence contained several protein binding sites facilitating the expression of the HSP-70 gene. The HSP promoter-luciferase heterologous gene construct was built in a pBR based plasmid vector that can be selected for neomycin. This HSP-70-luciferase plasmid was transfected into mouse fibroblast L929 cells. The assay was performed as follows.
The HSP-70-luc plasmid containing L929 cells are grown in DMEM (Dulbecco's Modified Eagle's Medium) medium supplemented with 5% FCS (Fetal Calf Serum). 10^4 cells are plated in the wells of a 24-well Costar cell culture plate in 1 ml of culture medium. Test substances are dissolved in PBS (Phosphate Buffered Saline) in 10^−2 M concentration. After attachment of the cells (3-4 hours after plating) 10 μl of the solution are given to the cultures and cells are incubated for 30 min. at 37° C. in a CO2 thermostat. Culture medium is then changed for fresh one (without test substance) and cells are allowed to regenerate for 1 hour at 37° C., then once washed with PBS. After removal of PBS 40 μl of 1× lysis buffer are added to the cells, and the samples are kept on ice for 30 minutes. Then the samples are transferred into Eppendorf vials and centrifuged at 14000 rpm for 20 min at 4° C. 5 μl of the supernatant is added to 25 μl of luciferase assay buffer and the luminescence of the samples is measured for 25 seconds in a luminometer.

Counter-ions that a name gives are not always drawn.

As to `NC(C=Cc1ccccc1)=NOCC(O)CN1CCOCC1` (stereo not drawn) [Example 7, O-(3-Morpholino-2-hydroxy-propyl)-cinnamic Acid Amidoxime], in the experiment on HepG2 cells, the activity at 30 µg/mL amounted to 141%. Also, the responders at 5 mg/kg with male SPRD rats was 42%. In addition, the IC50 in experiment [1] is 22.9 µM.

For `Cc1ccnc2c1NC(=O)c1cccnc1N2C1CC1` [Nevirapin, reference compound], in experiment [2] (concentration 0.2 μg/ml), the inhibition at 0.2 µg/mL stood at 21%. For the same compound, the inhibition at 2 µg/mL in experiment [2] (concentration 2 μg/ml) was 26%.

As to `NC(C=Cc1ccccc1)=NOCC(O)CN1CCCC1` (stereo not drawn) [Example 15, O-3-Pyrrolidino-2-hydroxy-propyl) Cinnamic Acid Amidoxime dihydrochloride], the “Activity (HSP-70 promoter luciferase)” value in experiment [3] is reported as 115. Further, in experiment [1], the IC50 was 65.7 µM.

Regarding `NC(C=C1CCCCC1)=NOCC(O)CN1CCCCC1` (stereo not drawn) [Example 19, O-(3-Piperidino-2-hydroxy-propyl)cyclohexyldene Acetamidoxime], the “PARP inhibitor classification in words” value in experiment [1] (conclusion on Table 1) was “very poor PARP inhibitor”. Besides, the IC50 in experiment [1] is 609 µM.

For `NC(C=Cc1ccccc1)=NOCC(O)CN1CCc2ccccc2C1` (stereo not drawn) [Example 11, O-[3-(1,2,3,4-Tetrahydro-2-isoquinolyl)-2-hydroxy-propyl)]cinnamic Acid Amidoxime Dihydrochloride], in the experiment on HepG2 cells, the activity at 30 µg/mL is 124%. The responders at 5 mg/kg in the experiment on male SPRD rats amounted to 20%. Moreover, the IC50 in experiment [1] is 51.2 µM.

Take `COc1ccc(C=CC(N)=NOCC(O)CN2CCOCC2)cc1OC` (stereo not drawn) [Example 9, O-(3-Morpholino-2-hydroxy-propyl-3,4-dimethoxycinnamic Acid Amidoxime Hydrochloride]: the IC50 in experiment [1] is 35.6 µM.

In the case of `NC(C=Cc1cccnc1)=NOCC(O)CN1CCCC1` (stereo not drawn) [Example 17, O-(3-Pyrrolidino-2-hydroxy-propyl)-3-(3-pyridyl)acrylic Acid Amidoxime Hydrochloride], the activity at 30 µg/mL in the experiment on HepG2 cells came to 118%. The IC50 in experiment [1] was 51.7 µM.

For `COc1ccc(C=CC(N)=NOCC(O)CN2CCCCC2)cc1OC` (stereo not drawn) [Example 18, O-(3-Piperidino-2-hydroxy-propyl)-3,4-dimethoxycinnamic Acid Amidoxime], in the experiment with male SPRD rats, the responders at 5 mg/kg was found to be 67% and the “effect on survival of reperfusion arrhythmia, in words” value is “similarly outstanding effect”. In addition, in experiment [1], the IC50 is 93.8 µM.

As to `COc1ccc(C=CC(N)=NOCC(O)CN2CCc3ccccc3C2)cc1OC` (stereo not drawn) [Example 12, O-[3-(1,2,3,4-Tetrahydro-2-isoquinolyl)-2-hydroxy-propyl]-3,4-dimethoxy-cinnamic Acid Amidoxime Dihydrochloride], the IC50 in experiment [1] is 19.4 µM.

For the compound `NC(C=Cc1cccnc1)=NOCC(O)CN1CCc2ccccc2C1` (stereo not drawn) [Example 13, O-(3-(1,2,3,4-Tetrahydro-2-isoquinolyl)-2-hydroxy-propyl)-3-(3-pyridyl) Acrylic Acid Amidoxime Dihydrochloride], the “Activity (HSP-70 promoter luciferase)” value in experiment [3] is given as 156. Moreover, the IC50 in experiment [1] was 34 µM.

Take `OC(CON=C(Cl)C=Cc1cccnc1)CN1CCOCC1` (stereo not drawn) [Example 33, N-(3-Morpholino-2-hydroxy-propoxy)-3-(3-pyridyl)acrylimidoyl Chloride Hydrogen Maleate]: the IC50 in experiment [1] is 15.8 µM.

With `COc1ccc(C=CC(N)=NOCC(O)CNC(C)(C)C)cc1OC` (stereo not drawn) [Example 8, O-(3-t.Butylamino-2-hydroxy-propyl)-3,4-dimethoxycinnamic Acid Amidoxime Dihydrochloride], the activity at 30 µg/mL in the experiment on HepG2 cells was 116%. Moreover, the responders at 5 mg/kg in the experiment with male SPRD rats came out at 37.5%. Further, the IC50 in experiment [1] was 28.5 µM.

With `ClC(C=Cc1cccnc1)=NOCCCN1CCCCC1.O=C(O)/C=C\C(=O)O` [Example 32, N-(3-Piperidino-propoxy)-3-(3-pyridyl)acrylimidoyl Chloride Hydrogen Maleate], in the experiment with male SPRD rats, the responders at 5 mg/kg amounted to 71.4% and the “effect on survival of reperfusion arrhythmia, in words” value is reported as “similarly outstanding effect”.

On to `CC(C)(C)NCC(O)CON=C(N)C=Cc1cccnc1` (stereo not drawn) [Example 14, O-(3-t.Buthylamino-2-hydroxy-propyl)-3-(3-pyridyl)acrylic Acid Amidoxime Dihydrochloride], for which, in the experiment on male SPRD rats, the responders at 5 mg/kg was 43%. Also, the IC50 in experiment [1] was 44.5 µM.

Consider `CC(C)(C)NCC(O)CON=C(N)C=Cc1ccccc1` (stereo not drawn) [Example 6, O-(3-t.Buthylamino-2-hydroxy-propyl)-cinnamic Acid Amidoxime], for which the “Activity (HSP-70 promoter luciferase)” value in experiment [3] is recorded as 302. Besides, the IC50 in experiment [1] is 27.5 µM.

`CC(C)(C)NCC(O)CON=C(Cl)C=Cc1cccnc1` (stereo not drawn) [Example 31, N-(3-t.Butylamino-2-hydroxy-propoxy)-3-(3 pyridyl)acrylimidoyl Chloride Hydrogen Maleate]: the IC50 in experiment [1] was 19.2 µM.

Take `OC(CON=C(Cl)C=Cc1ccccc1)CN1CCCC1` (stereo not drawn) [Example 26, N-(3-Pyrrolidino-2-hydroxy-propoxy)-3-phenyl Acrylimidoyl Chloride]: the activity at 30 µg/mL in the experiment on HepG2 cells is 112%.

Consider `NC(C=Cc1cccnc1)=NOCC(O)CN1CCOCC1` (stereo not drawn) [Example 10, O-(3-Morpholino-2-hydroxy-propyl)-3-(3-pyridyl)-acrylic Acid Amidoxime Hydrochloride], for which the IC50 in experiment [1] is 55.5 µM.

For the compound `COc1ccc(C=CC(N)=NOCC(O)CN2CCCC2)cc1OC` (stereo not drawn) [Example 16, O-(3-Pyrrolidino-2-hydroxy-propyl)-3,4-dimethoxycinnamic Acid Amidoxime Dihydrochloride], the activity at 30 µg/mL in the experiment with HepG2 cells is 120%. For the same compound, the IC50 in experiment [1] was 51.5 µM.
